Data set [1] relates to LIX1 expression in GIST-T1 cells. In words: LIX1 expression by RT-qPCR in GIST-T1 cells. Conditions: 0.5 μM, 6 h, 24 h and 48 h, vs DMSO control. Format: cell-based, human. The protocol: Analysis of LIX1 expression by RT-qPCR in GIST-T1 cells upon incubation with DMSO alone (control) or with 0.5 μM of imatinib mesylate (KIT inhibitor) for 6 h, 24 h and 48 h. Normalized expression levels were converted to fold changes. **P<0.01; ***P<0.001.
Resistance to tyrosine kinase inhibitors such as imatinib is increasing in GISTs and complete remissions are rare, highlighting the necessity to identify additional therapeutic targets. The inventors investigated the role of LIX1 in secondary imatinib-resistant GISTs using GIST-T1 cells, a primary gastric GIST cell line sensitive to Imatinib treatment that harbors hetereygous deletion in KIT gene with constitutive KIT signaling pathway.

Another data set relates to GIST. Conditions: after 5 years; increased from 30% after 1 year; cited from earlier work.
Data set [2] concerns LIX1 transcript levels in GIST882 cells. In words: LIX1 expression by RT-qPCR in GIST882 cells. Format: cell-based, human. The conditions noted are these: 1 μM, 6 h, 24 h and 48 h, vs DMSO control. On the procedure: FIG. 1: LIX1 is expressed in GISTs. (A) LIX1 mRNA expression and regulation in the GIST882 cell line. (a) Semi-quantitative RT-PCR analysis of LIX1 transcript level in 131N1 (astrocytoma cells), PC3 (prostate cancer cells), HeLa, and GIST882 cells. Loading was verified by glyceraldehyde-3-phosphate dehydrogenase (GAPDH) expression. (b) Analysis of LIX1 expression by RT-qPCR in GIST882 cells upon incubation with DMSO alone (control) or with 7.5 μM of Akti (inhibitor of AKT) for 6 h, 24 h and 48 h. Normalized expression levels were converted to fold changes. *P<0.05; **P<0.01. (c) Analysis of LIX1 expression by RT-qPCR in GIST882 cells upon incubation with DMSO alone (control) or with 1 μM of imatinib mesylate (KIT inhibitor) for 6 h, 24 h and 48 h. […] (b) Relapse-free survival from initial imatinib mesylate treatment in group 1 presenting low level of LIX1 compared with group 2 presenting high level of LIX1 individuals with GIST, assessed in a univariate analysis using the Kaplan-Meier method. […]
Total RNA was extracted from stomachs or cell cultures with the HighPure RNA Isolation kit (Roche). […] Each sample was analysed in three independent experiments done in triplicate. Expression levels were determined with the LightCycler analysis software (version 3.5) relative to standard curves. […] Relative mRNA expression was calculated using the 2^−ΔΔCT method. […]
A general note: Quantitative PCR measures a nucleic acid by following its amplification.

The subject of data set [3] is DF-1 fibroblast cell line. Kind of data set: Cell proliferation of LIX1-expressing DF-1 cultures (Muse Count and Viability). Format: cell-based, chicken. Conditions: LIX1-expressing DF-1 cells, low density, 1 μM for 20 hours. On the procedure:
(§1) The chicken DF-1 fibroblast cell line was cultured as previously described. Cell growth in DF-1 cultures was assessed using the Muse Count and Viability reagent following the manufacturer's specifications (Muse Cell Analyzer-Millipore). DF-1 cells were plated on plastic at 2000 cells/cm^2 to obtain low-density cultures and 6000 cells/cm^2 to obtain high-density cultures. Verteporfin (Sellekchem) was used applied to DF-1 cells for 20 hours at a final concentration of 1 μM.
(§2) DF-1 chicken fibroblasts were infected with replication-competent RCAS retroviruses and cultured for 5 days to ensure homogeneous expression. […] This greater expression was associated with higher transcript levels of YAP1 pro-proliferation target genes CTGF and CYR61 and an increase in cell proliferation. […] After 3 days in culture, LIX1-expressing cells had grown faster than control cells. However, although YAP1 expression in LIX1-expressing cells remained higher than in controls, the levels of CTGF and CYR61 transcripts were similar to control levels.

Data set [4] concerns YAP1 activity (YAP-TEAD interaction). In words: RT-qPCR of YAP1 and its targets CTGF and CYR61 in LIX1-expressing DF-1 cells. Format: cell-based, chicken. The conditions noted are these: low density, 1 μM for 20 hours. On the procedure:
as §1
Total RNA was extracted from stomachs or cell cultures with the HighPure RNA Isolation kit (Roche). Reverse transcription was performed using the Verso cDNA synthesis kit (Thermo Scientific) and RT-qPCR was performed using LightCycler technology (Roche Diagnostics). PCR primers were designed using the LightCycler Probe Design 2.0 software. Each sample was analysed in three independent experiments done in triplicate. Expression levels were determined with the LightCycler analysis software (version 3.5) relative to standard curves. Data were represented as the mean level of gene expression relative to the expression of the reference genes UBIQUITIN or GAPDH. Relative mRNA expression was calculated using the 2^−ΔΔCT method.
DF-1 chicken fibroblasts were infected with replication-competent RCAS retroviruses and cultured for 5 days to ensure homogeneous expression. […]

In data set [5] the test system is DF-1 fibroblast cell line. Kind of data set: Analysis of cell death in DF-1 cultures. Format: cell-based, chicken. Conditions: 1 μM for 20 hours. The protocol: as §1, §2

Counter-ions that a name gives are not always drawn.

`Cc1ccc(NC(=O)c2ccc(CN3CCN(C)CC3)cc2)cc1Nc1nccc(-c2cccnc2)n1` [imatinib mesylate]: in data set [1], the LIX1 expression result is “upregulated”. Further, in the data set with GIST, the GIST patient survival was 50%. In addition, the LIX1 transcript levels entry in data set [2] was “strong and efficient inhibition of LIX1 transcript levels”.
Regarding verteporfin, the rates of proliferation result in data set [3] is “comparable with control cells”. Moreover, in data set [4], the YAP1 expression entry is given as “upregulation of YAP1 was still observed”; the “levels of CTGF and CYR61 transcripts” value is listed as “comparable with control cells”. Moreover, in data set [5], the “cytotoxic effect (cell death)” value is “not due to a cytotoxic effect”.

(Values after patent US11300568B2, “Methods for the diagnosis and treatment of gastrointestinal stromal tumors” (INSERM (INSTITUT NATIONAL DE LA SANTE ET DE LA RECHERCHE …, priority 2016, dated 2022).)
